# ChEMBL document CHEMBL4308841, “Synthesis, in vitro antiproliferative activity, and kinase inhibitory effects of pyrazole-containing diarylureas and diarylamides” (Eur J Med Chem, 2018)
# Experiments:
# NCI-H23 [1] = experiment: Growth inhibition of human NCI-H23 cells incubated for 48 hrs by sulforhodamine B assay; format: functional, cell-based; conditions: NCI-H23, 48 h
# HCC 2998 [2] = experiment: Growth inhibition of human HCC2998 cells incubated for 48 hrs by sulforhodamine B assay; format: functional, cell-based; conditions: HCC 2998, 48 h
# HCT-15 = experiment: Growth inhibition of human HCT15 cells incubated for 48 hrs by sulforhodamine B assay; format: functional, cell-based; conditions: HCT-15, 48 h
# M14 = experiment: Growth inhibition of human M14 cells incubated for 48 hrs by sulforhodamine B assay; format: functional, cell-based; conditions: M14, 48 h
# SK-MEL-28 = experiment: Growth inhibition of human SK-MEL-28 cells incubated for 48 hrs by sulforhodamine B assay; format: functional, cell-based; conditions: SK-MEL-28, 48 h
# PC-3 [3] = experiment: Growth inhibition of human PC3 cells incubated for 48 hrs by sulforhodamine B assay; format: functional, cell-based; conditions: PC-3, 48 h
# HL-60(TB) [4] = experiment: Growth inhibition of human HL-60(TB) cells assessed as cell growth at 0.01 uM incubated for 48 hrs by sulforhodamine B assay relative to control; format: functional; conditions: HL-60, 48 h, read-out: Activity
# SR = experiment: Growth inhibition of human SR cells assessed as cell growth at 0.01 uM incubated for 48 hrs by sulforhodamine B assay relative to control; format: functional; conditions: read-out: Activity
# NCI-H460 = experiment: Growth inhibition of human NCI-H460 cells assessed as cell growth at 0.01 uM incubated for 48 hrs by sulforhodamine B assay relative to control; format: functional; conditions: NCI-H460, 48 h, read-out: Activity
# HCC 2998 [5] = experiment: Growth inhibition of human HCC2998 cells assessed as cell growth at 0.01 uM incubated for 48 hrs by sulforhodamine B assay relative to control; format: functional; conditions: HCC 2998, 48 h, read-out: Activity
# SF-295 = experiment: Growth inhibition of human SF295 cells assessed as cell growth at 0.01 uM incubated for 48 hrs by sulforhodamine B assay relative to control; format: functional; conditions: SF-295, 48 h, read-out: Activity
# SK-MEL-5 [6] = experiment: Growth inhibition of human SK-MEL-5 cells assessed as cell growth at 0.01 uM incubated for 48 hrs by sulforhodamine B assay relative to control; format: functional; conditions: SK-MEL-5, 48 h, read-out: Activity
# OVCAR-3 = experiment: Growth inhibition of human OVCAR3 cells assessed as cell growth at 0.01 uM incubated for 48 hrs by sulforhodamine B assay relative to control; format: functional; conditions: OVCAR-3, 48 h, read-out: Activity
# MDA-MB-468 [7] = experiment: Growth inhibition of human MDA-MB-468 cells assessed as cell growth at 0.01 uM incubated for 48 hrs by sulforhodamine B assay relative to control; format: functional; conditions: MDA-MB-468, 48 h, read-out: Activity
# SW-620 = experiment: Growth inhibition of human SW620 cells assessed as cell growth at 0.1 uM incubated for 48 hrs by sulforhodamine B assay relative to control; format: functional; conditions: SW-620, 48 h, read-out: Activity
# SF-268 = experiment: Growth inhibition of human SF268 cells assessed as cell growth at 0.1 uM incubated for 48 hrs by sulforhodamine B assay relative to control; format: functional; conditions: SF-268, 48 h, read-out: Activity
# LOX IMVI = experiment: Growth inhibition of human LOXIMVI cells assessed as cell growth at 0.1 uM incubated for 48 hrs by sulforhodamine B assay relative to control; format: functional; conditions: read-out: Activity
# SK-MEL-5 [8] = experiment: Growth inhibition of human SK-MEL-5 cells assessed as cell growth at 0.1 uM incubated for 48 hrs by sulforhodamine B assay relative to control; format: functional; conditions: SK-MEL-5, 48 h, read-out: Activity
# HL-60(TB) [9] = experiment: Growth inhibition of human HL-60(TB) cells assessed as cell growth at 1 uM incubated for 48 hrs by sulforhodamine B assay relative to control; format: functional; conditions: HL-60, 48 h, read-out: Activity
# HOP-62 = experiment: Growth inhibition of human HOP62 cells assessed as cell growth at 1 uM incubated for 48 hrs by sulforhodamine B assay relative to control; format: functional; conditions: HOP-62, 48 h, read-out: Activity
# NCI-H23 [10] = experiment: Growth inhibition of human NCI-H23 cells assessed as cell growth at 1 uM incubated for 48 hrs by sulforhodamine B assay relative to control; format: functional; conditions: NCI-H23, 48 h, read-out: Activity
# HT-29 = experiment: Growth inhibition of human HT-29 cells assessed as cell growth at 1 uM incubated for 48 hrs by sulforhodamine B assay relative to control; format: functional; conditions: HT-29, 48 h, read-out: Activity
# OVCAR-8 = experiment: Growth inhibition of human OVCAR8 cells assessed as cell growth at 1 uM incubated for 48 hrs by sulforhodamine B assay relative to control; format: functional; conditions: OVCAR-8, 48 h, read-out: Activity
# MOLT-4 = experiment: Growth inhibition of human MOLT4 cells assessed as cell growth at 100 uM incubated for 48 hrs by sulforhodamine B assay relative to control; format: functional; conditions: MOLT-4, 48 h, read-out: Activity
# HCT-116 = experiment: Growth inhibition of human HCT116 cells assessed as cell growth at 100 uM incubated for 48 hrs by sulforhodamine B assay relative to control; format: functional; conditions: HCT-116, 48 h, read-out: Activity
# SNB-19 = experiment: Growth inhibition of human SNB19 cells assessed as cell growth at 100 uM incubated for 48 hrs by sulforhodamine B assay relative to control; format: functional; conditions: SNB-19, 48 h, read-out: Activity
# PC-3 [11] = experiment: Growth inhibition of human PC3 cells assessed as cell growth at 100 uM incubated for 48 hrs by sulforhodamine B assay relative to control; format: functional; conditions: PC-3, 48 h, read-out: Activity
# T47D = experiment: Growth inhibition of human T47D cells assessed as cell growth at 100 uM incubated for 48 hrs by sulforhodamine B assay relative to control; format: functional; conditions: read-out: Activity
# MDA-MB-468 [12] = experiment: Growth inhibition of human MDA-MB-468 cells assessed as cell growth at 100 uM incubated for 48 hrs by sulforhodamine B assay relative to control; format: functional; conditions: MDA-MB-468, 48 h, read-out: Activity
# [13] = read-out: LC50 (the source's name)
# [14] = read-out: pLC50 (the source's name) (converted)
structure (smiles),measurement,setting,value
COc1cc(Cl)cc(-c2nn(-c3cccc(NC(=O)c4ccc(N5CCOCC5)c(C(F)(F)F)c4)c3)cc2-c2ccncc2)c1,GI50,NCI-H23 [1]; read-out: GI50,3.07 µM
same,LC50,NCI-H23 [1]; read-out: LC50,> 100 µM
same,TGI,NCI-H23 [1]; read-out: TGI,> 100 µM
same,GI50,NCI-H23 [1]; read-out: pGI50 (converted),30.9 µM
same,LC50,NCI-H23 [1]; read-out: pLC50 (converted),> 100 µM
same,TGI,NCI-H23 [1]; read-out: pTGI (converted),> 100 µM
same,GI50,HCC 2998 [2]; read-out: GI50,5.06 µM
same,CC50,HCC 2998 [2]; [13],> 100 µM
same,TGI,HCC 2998 [2]; read-out: TGI,74.7 µM
same,GI50,HCC 2998 [2]; read-out: pGI50 (converted),6.03 µM
same,CC50,HCC 2998 [2]; [14],> 100 µM
same,TGI,HCC 2998 [2]; read-out: pTGI (converted),74.1 µM
same,GI50,HCT-15; read-out: GI50,3.25 µM
same,CC50,HCT-15; [13],> 100 µM
same,TGI,HCT-15; read-out: TGI,> 100 µM
same,GI50,HCT-15; read-out: pGI50 (converted),3.24 µM
same,CC50,HCT-15; [14],> 100 µM
same,TGI,HCT-15; read-out: pTGI (converted),> 100 µM
same,GI50,M14; read-out: GI50,7.93 µM
same,CC50,M14; [13],> 100 µM
same,TGI,M14; read-out: TGI,> 100 µM
same,GI50,M14; read-out: pGI50 (converted),7.94 µM
same,CC50,M14; [14],> 100 µM
same,TGI,M14; read-out: pTGI (converted),> 100 µM
same,GI50,SK-MEL-28; read-out: GI50,1.48 µM
same,CC50,SK-MEL-28; [13],> 100 µM
same,TGI,SK-MEL-28; read-out: TGI,> 100 µM
same,GI50,SK-MEL-28; read-out: pGI50 (converted),14.8 µM
same,CC50,SK-MEL-28; [14],> 100 µM
same,TGI,SK-MEL-28; read-out: pTGI (converted),> 100 µM
same,IC50,PC-3 [3],3.3 µM
same,GI50,PC-3 [3]; read-out: GI50,3.3 µM
same,CC50,PC-3 [3]; [13],> 100 µM
same,TGI,PC-3 [3]; read-out: TGI,> 100 µM
same,GI50,PC-3 [3]; read-out: pGI50 (converted),3.31 µM
same,CC50,PC-3 [3]; [14],> 100 µM
same,TGI,PC-3 [3]; read-out: pTGI (converted),> 100 µM
same,growth at 0.01 µM,HL-60(TB) [4],94%
same,growth at 0.01 µM,SR,96%
same,growth at 0.01 µM,NCI-H460,102%
same,growth at 0.01 µM,HCC 2998 [5],95%
same,growth at 0.01 µM,SF-295,90%
same,growth at 0.01 µM,SK-MEL-5 [6],97%
same,growth at 0.01 µM,OVCAR-3,100%
same,growth at 0.01 µM,MDA-MB-468 [7],94%
same,growth at 0.1 µM,SW-620,101%
same,growth at 0.1 µM,SF-268,94%
same,growth at 0.1 µM,LOX IMVI,95%
same,growth at 0.1 µM,SK-MEL-5 [8],99%
same,growth at 1 µM,HL-60(TB) [9],105%
same,growth at 1 µM,HOP-62,107%
same,growth at 1 µM,NCI-H23 [10],96%
same,growth at 1 µM,HT-29,93%
same,growth at 1 µM,OVCAR-8,56%
same,growth at 100 µM,MOLT-4,29%
same,growth at 100 µM,HCT-116,25%
same,growth at 100 µM,SNB-19,60%
same,growth at 100 µM,PC-3 [11],19%
same,growth at 100 µM,T47D,33%
same,growth at 100 µM,MDA-MB-468 [12],17%
COc1cc(Cl)cc(-c2nn(-c3cccc(NC(=O)Nc4ccc(Cl)c(C(F)(F)F)c4)c3)cc2-c2ccncc2)c1,GI50,NCI-H23 [1]; read-out: GI50,1.36 µM
same,LC50,NCI-H23 [1]; read-out: LC50,> 100 µM
same,TGI,NCI-H23 [1]; read-out: TGI,62.3 µM
same,GI50,NCI-H23 [1]; read-out: pGI50 (converted),1.35 µM
same,LC50,NCI-H23 [1]; read-out: pLC50 (converted),> 100 µM
same,TGI,NCI-H23 [1]; read-out: pTGI (converted),6.17 µM
same,GI50,HCC 2998 [2]; read-out: GI50,2.91 µM
same,CC50,HCC 2998 [2]; [13],4.41 µM
same,TGI,HCC 2998 [2]; read-out: TGI,90.2 µM
same,GI50,HCC 2998 [2]; read-out: pGI50 (converted),2.88 µM
same,CC50,HCC 2998 [2]; [14],43.7 µM
same,TGI,HCC 2998 [2]; read-out: pTGI (converted),9.12 µM
same,GI50,HCT-15; read-out: GI50,0.493 µM
same,CC50,HCT-15; [13],6.46 µM
same,TGI,HCT-15; read-out: TGI,24 µM
same,GI50,HCT-15; read-out: pGI50 (converted),0.49 µM
same,CC50,HCT-15; [14],8.51 µM
same,TGI,HCT-15; read-out: pTGI (converted),2.4 µM
same,GI50,M14; read-out: GI50,1.33 µM
same,CC50,M14; [13],0.05 µM
same,TGI,M14; read-out: TGI,34.7 µM
same,GI50,M14; read-out: pGI50 (converted),1.32 µM
same,CC50,M14; [14],9.12 µM
same,TGI,M14; read-out: pTGI (converted),8.51 µM
same,GI50,SK-MEL-28; read-out: GI50,2.41 µM
same,CC50,SK-MEL-28; [13],5.41 µM
same,TGI,SK-MEL-28; read-out: TGI,84.1 µM
same,GI50,SK-MEL-28; read-out: pGI50 (converted),2.4 µM
same,CC50,SK-MEL-28; [14],53.7 µM
same,TGI,SK-MEL-28; read-out: pTGI (converted),4.17 µM
same,IC50,PC-3 [3],0.34 µM
same,GI50,PC-3 [3]; read-out: GI50,0.342 µM
same,CC50,PC-3 [3]; [13],> 100 µM
same,TGI,PC-3 [3]; read-out: TGI,21.2 µM
same,GI50,PC-3 [3]; read-out: pGI50 (converted),0.339 µM
same,CC50,PC-3 [3]; [14],> 100 µM
same,TGI,PC-3 [3]; read-out: pTGI (converted),2.14 µM
same,growth at 0.01 µM,HL-60(TB) [4],96%
same,growth at 0.01 µM,SR,95%
same,growth at 0.01 µM,NCI-H460,100%
same,growth at 0.01 µM,HCC 2998 [5],95%
same,growth at 0.01 µM,SF-295,59%
same,growth at 0.01 µM,SK-MEL-5 [6],96%
same,growth at 0.01 µM,OVCAR-3,91%
same,growth at 0.01 µM,MDA-MB-468 [7],92%
same,growth at 0.1 µM,SW-620,96%
same,growth at 0.1 µM,SF-268,90%
same,growth at 0.1 µM,LOX IMVI,97%
same,growth at 0.1 µM,SK-MEL-5 [8],98%
same,growth at 1 µM,HL-60(TB) [9],72%
same,growth at 1 µM,HOP-62,84%
same,growth at 1 µM,NCI-H23 [10],60%
same,growth at 1 µM,HT-29,55%
same,growth at 1 µM,OVCAR-8,43%
same,growth at 100 µM,MOLT-4,-28%
same,growth at 100 µM,HCT-116,-94%
same,growth at 100 µM,SNB-19,-25%
same,growth at 100 µM,PC-3 [11],-15%
same,growth at 100 µM,T47D,-18%
same,growth at 100 µM,MDA-MB-468 [12],-27%
